From US9557338B2 (SIGNAL PHARMACEUTICALS, LLC, priority 2012, dated 2017)
Where two headings read alike, the source gives them in different places.

Experiments:
Format in all cases: cell-based
p70S6K = experiment: Luminex multiplex assay, p70S6K phosphorylation in cell lysates
Description: (§1) The multiplex Luminex assay format differs from conventional enzyme-linked immunosorbent assay (ELISA) in that the multiplex capture antibody is attached to a polystyrene bead whereas the ELISA capture antibody is attached to the microplate well. The use of the suspension bead-based technology enables the multiplexing capabilities of the Luminex assays. The xMAP® technology uses 5.6 micron polystyrene microspheres, which are internally dyed with red and infrared fluorophores of differing intensities. Each bead is given a unique number, or bead region, allowing differentiation of one bead from another. Beads covalently bound to different specific antibodies can be mixed in the same assay, utilizing a 96-well microplate format. At the completion of the sandwich immunoassay, beads can be read, using the Luminex 100™ or Luminex 200 detection system, in single-file by dual lasers for classification and quantification of each analyte. The Akt-Pathway Phospho 5-plex kit used was custom made and includes the ability to simultaneously measure p-GSK3β (S9), p-PRAS40(T246), and p-4E-BP1(T46).
(§2) Cells were plated at the required density. The cells were treated with either Compound 1 or rapamycin over a range of concentrations for 1 hour in 5% CO2 at 37° C. Compound 1 and rapamycin were used at the same concentrations as for the proliferation assay. As for the cell proliferation assay, a reference standard was included in the assay for PC3 cells and the coefficient of variation for assay of p-GSK3β(S9) was 37.8% (n=30), p-PRAS40(T246) was 27.8% (n=30) and for p4E-BP1(T46) was 13.5% (n=4). For three cell lines (HCT-116, MDA-MB-231 and HT29) in the assay for phosphorylation of GSK3β, PRAS40 and 4E-BP1, IGF-I stimulation (500 ng/mL, recombinant human IGF-I) for the last 10 min of incubation was used. The media was aspirated from the wells and the plate was placed on ice. Then 35 μL of Lysis Buffer was added to each well and incubated on ice for at least 30 minutes. During the incubation, the standard curve for each phosphoprotein was prepared. The standards provided were reconstituted and serial dilutions were prepared according to the manufacturer's instructions. At the end of the cell lysis step, […] of the lysate was transferred to a V-bottom plate and spun at 4° C. at 2000 rpm for 5 minutes. Both the 1× Luminex bead and 1× detector antibody solutions were prepared during this time. The 1× bead solution was vortexed and 25 μL was added into each well of a black round bottom plate. Then 50 μL of the 1× detector antibody was added to each well. Fifty microliters (50 μL) of the prepared standards were added to the designated wells. Then 25 μL of the assay diluent was added to each well designated for the compound-treated cell lysates. At the end of the spin, 25 μL of cell lysate was added to the corresponding wells of the black assay plate. The assay plate was covered with the white plate lid and incubated for 3 hours at room temperature on an orbital shaker.
(§3) Approximately 10-15 minutes prior to the end of the first incubation, the secondary antibody solution was prepared according to the vendor's protocol. Goat anti-rabbit R-phycoerythrin red fluorescent protein (RPE) supplied as a 10× concentrate was diluted to generate a 1× goat anti-rabbit RPE stock. The 96-well filter plate was pre-wet with 200 μL of 1× Working wash solution. At the end of the 3 hour incubation, a multichannel pipette was used to transfer the entire contents from each assay well into the wells of the filter plate. The liquid from the wells was removed by aspiration with the vacuum manifold. Then 200 μL of 1× Working wash solution was added into each well. The wash solution was aspirated using the vacuum manifold after 15-30 seconds. This wash step was repeated one time. The bottom of the plate was blotted on clean paper towels to remove residual liquid. […]

Phospho-PRAS40(T246) = experiment: Luminex multiplex assay, Phospho-PRAS40(T246)
Description: (§4) Determination of Phospho-GSK3β(S9), Phospho-PRAS40(T246) and Phospho-4E-BP1(T46) and the Effect of Compound 1 or Rapamycin.
as §1, §2, §3

Phospho-GSK3β(S9) = experiment: Luminex multiplex assay, Phospho-GSK3β(S9)
Description: as §4, §1, §2, §3

[1] = PC3 cell line, read-out: Luminex p70S6K
[2] = PC3 cell line, read-out: Luminex PRAS40
[3] = PC3 cell line, read-out: Luminex GSK-3β
[4] = Homo sapiens, HCT-116, HCT116 cell line, IGF, read-out: Luminex p70S6K (IGF)
[5] = Homo sapiens, U-87 MG, U87MG cell line, read-out: Luminex p70S6K
[6] = Homo sapiens, HCT-116, HCT116 cell line, IGF, read-out: Luminex PRAS40 (IGF)
[7] = Homo sapiens, U-87 MG, U87MG cell line, read-out: Luminex PRAS40
[8] = Homo sapiens, HCT-116, HCT116 cell line, IGF, read-out: Luminex GSK-3β (IGF)
[9] = Homo sapiens, U-87 MG, U87MG cell line, read-out: Luminex GSK-3β

Row | Structure (SMILES) | IC50 (p70S6K; [1]) [nM] | IC50 (Phospho-PRAS40(T246); [2]) [nM] | IC50 (Phospho-GSK3β(S9); [3]) [nM] | IC50 (p70S6K; [4]) [nM] | IC50 (p70S6K; [5]) [nM] | IC50 (Phospho-PRAS40(T246); [6]) [nM] | IC50 (Phospho-PRAS40(T246); [7]) [nM] | IC50 (Phospho-GSK3β(S9); [8]) [nM] | IC50 (Phospho-GSK3β(S9); [9]) [nM]
1 | CO[C@H]1CC[C@H](CN2CC(=O)Nc3ncc(-c4ccc(C(C)(C)O)nc4)nc32)C1 [C-26] | 104 | 498 | 1430 |  |  |  |  |  | 
2 | O=C1CNc2ncc(-c3ccncc3)nc2N1CCC1CCOCC1 [C-101] | 469 | > 1500 | > 1500 |  |  |  |  |  | 
3 | O=C1CNc2ncc(-c3cnc4nc[nH]c4c3)nc2N1CCC1CCOCC1 [C-67] | > 1500 | > 1500 | > 1500 |  |  |  |  |  | 
4 | NC(=O)c1ccc(-c2cnc3c(n2)N(CCC2CCOCC2)C(=O)CN3)cc1 [C-63] | 216 | 842 | 927 |  |  |  |  |  | 
5 | Cc1cc(C(N)=O)ncc1-c1cnc2c(n1)N(CC1CCOCC1)C(=O)CN2 [C-96] | 129 | 919 | 721 |  |  |  |  |  | 
6 | COCCn1c(=O)[nH]c2ncc(-c3cnc4[nH]ccc4c3)nc21 [C-43] | 201 | 524 | 214 |  |  |  |  |  | 
7 | CC(C)(O)c1ccc(-c2cnc3c(n2)N(CC2CCOCC2)CC(=O)N3)cn1 [A-1, 6-(6-(2-hydroxypropan-2-yl)pyridin-3-yl)-4-((tetrahydro-2H-pyran-4-yl)methyl)-3,4-dihydropyrazino[2,3-b]pyrazin-2(1H)-one] |  |  |  | 2120 | 526 | 2610 | 1660 | 1740 | 1220
8 | CCn1c(=O)[nH]c2ncc(-c3ccc(-c4nc[nH]n4)c(F)c3C)nc21 [A-7, 1-ethyl-6-(3-fluoro-2-methyl-4-(1H-1,2,4-triazol-3-yl)phenyl)-1H-imidazo[4,5-b]pyrazin-2(3H)-one] |  |  |  | 470 | 145 | 1020 | 2850 |  | > 5000
9 | O=C1CN(CCC2CCOCC2)c2nc(-c3cccc(-c4ncn[nH]4)c3)cnc2N1 [C-87] | 910 | > 1500 | > 1500 |  |  |  |  |  | 
10 | CO[C@@H]1CC[C@@H](CN2CC(=O)Nc3ncc(-c4ccc(C(C)(C)O)nc4)nc32)C1 [C-25] | 94 | 705 | 1780 |  |  |  |  |  | 
11 | Cc1cc(-c2cnc3c(n2)N(CC2CCOCC2)C(=O)CN3)cc2[nH]c(=O)[nH]c12 [C-38] | 5000 | 3250 | > 5000 |  |  |  |  |  | 
12 | CO[C@@H]1CC[C@H](N2C(=O)CNc3ncc(-c4ccc(C(C)(C)O)nc4)nc32)C1 [C-80] | 133 | 724 | 841 |  |  |  |  |  | 
13 | CC(C)(O)c1ccc(-c2cnc3c(n2)N(C2CCOCC2)C(=O)CN3)cn1 [C-47] | 497 | 1470 | 3110 |  |  |  |  |  | 
14 | CO[C@@H]1CC[C@H](N2CC(=O)Nc3ncc(-c4ccc(C(C)(C)O)nc4)nc32)C1 [C-28] | 452 | 2360 | > 5000 |  |  |  |  |  | 
15 | CO[C@H]1CC[C@H](N2CC(=O)Nc3ncc(-c4ccc(C(C)(C)O)nc4)nc32)CC1 [C-8] | 116 | 688 | 627 |  |  |  |  |  | 
16 | NC(=O)c1cccc(-c2cnc3c(n2)N(CCC2CCOCC2)CC(=O)N3)c1 [C-84] | > 1500 | > 1500 | > 1500 |  |  |  |  |  | 
17 | CC(C)(O)c1ccc(-c2cnc3c(n2)N(CC2CCOCC2)CC(=O)N3)cn1 [C-5] | 156 | 1750 | 964 |  |  |  |  |  | 
18 | CO[C@H]1CC[C@H](N2C(=O)CNc3ncc(-c4ccc(C(C)(C)O)nc4)nc32)C1 [C-79] | 981 | > 1500 | > 1500 |  |  |  |  |  | 
19 | COC1CCC(CN2CC(=O)Nc3ncc(-c4ccc(C(C)(C)O)nc4)nc32)C1 (stereo not shown) [C-21] | 105 | 795 | 1680 |  |  |  |  |  | 
20 | CC(C)(O)c1ccc(-c2cnc3c(n2)N(CC2CCOCC2)CC(=O)N3)cc1 [A-6, 6-(4-(2-hydroxypropan-2-yl)phenyl)-4-((tetrahydro-2H-pyran-4-yl)methyl)-3,4-dihydropyrazino[2,3-b]pyrazin-2(1H)-one] |  |  |  | 654 | 162 | 492 | 3240 |  | 2470
21 | CC(C)(O)c1ccc(-c2cnc3c(n2)N(CCN2CCOCC2)C(=O)CN3)cn1 [C-70] | 540 | > 1500 | 700 |  |  |  |  |  | 
22 | Cc1nc(-c2nnc[nH]2)ccc1-c1cnc2c(n1)N(CCC1CCOCC1)C(=O)CN2 [A-4, 7-(2-methyl-6-(4H-1,2,4-triazol-3-yl)pyridin-3-yl)-1-(2-(tetrahydro-2H-pyran-4-yl)ethyl)-3,4-dihydropyrazino[2,3-b]pyrazin-2(1H)-one] |  |  |  | 96.6 | 27.8 | 120 | 98 | 96.2 | 71
23 | COC1CCC(N2CC(=O)Nc3ncc(-c4ccc(C(C)(C)O)nc4)nc32)C1 (stereo not shown) [C-29] | 235 | 2130 | > 5000 |  |  |  |  |  | 
24 | CCN1C(=O)CNc2ncc(-c3cccc4[nH]ncc34)nc21 [C-102] | > 1500 | > 1500 | > 1500 |  |  |  |  |  | 

Further lines, results first:

Row | IC50 (p70S6K; [1]) [nM] | IC50 (Phospho-PRAS40(T246); [2]) [nM] | IC50 (Phospho-GSK3β(S9); [3]) [nM] | IC50 (p70S6K; [4]) [nM] | IC50 (p70S6K; [5]) [nM] | IC50 (Phospho-PRAS40(T246); [6]) [nM] | IC50 (Phospho-PRAS40(T246); [7]) [nM] | IC50 (Phospho-GSK3β(S9); [8]) [nM] | IC50 (Phospho-GSK3β(S9); [9]) [nM] | Structure (SMILES)
25 | 6 | 123 | 170 |  |  |  |  |  |  | CO[C@H]1CC[C@@H](N2C(=O)CNc3ncc(-c4ccc(-c5nnc[nH]5)nc4C)nc32)C1 [C-57]
26 | 8 | 27 | 32 |  |  |  |  |  |  | COCCN1C(=O)CNc2ncc(-c3ccc(-c4nnc[nH]4)c(F)c3)nc21 [C-27]
27 | 5 | 31 | 37 |  |  |  |  |  |  | COC1CCC(N2CC(=O)Nc3ncc(-c4ccc(-c5nc[nH]n5)c(F)c4C)nc32)CC1 (stereo not shown) [C-108]
28 | 12 | 59 | 169 |  |  |  |  |  |  | COCCN1CC(=O)Nc2ncc(-c3ccc(-c4nnc[nH]4)c(F)c3C)nc21 [C-32]
29 | 2 | 14 | > 5000 |  |  |  |  |  |  | Cc1cc(-c2nnc[nH]2)ccc1-c1cnc2c(n1)N(Cc1ccccc1)C(=O)CN2 [C-31]
30 | 4 | 27 | 37 |  |  |  |  |  |  | O=C1CN(CCC2CCOCC2)c2nc(-c3ccc(-c4nnc[nH]4)c(F)c3)cnc2N1 [C-18]
31 | 46 | 816 | 859 |  |  |  |  |  |  | COC1CCC(N2CC(=O)Nc3ncc(-c4ccc(-c5nnc[nH]5)nc4C)nc32)C1 (stereo not shown) [C-51]
32 | 40 | 207 | 266 |  |  |  |  |  |  | CC(C)(O)c1ccc(-c2cnc3c(n2)N([C@H]2CC[C@H](O)CC2)C(=O)CN3)cn1 [C-65]
33 | 27 | 139 | 30 |  |  |  |  |  |  | CC(C)(O)c1ccc(-c2cnc3c(n2)N(Cc2cccc(C#N)c2)C(=O)CN3)cn1 [C-85]
34 | 29 | 308 | 234 |  |  |  |  |  |  | COC1CCC(CN2C(=O)CNc3ncc(-c4cnc(C(N)=O)cc4C)nc32)CC1 (stereo not shown) [C-95]
35 | 3 | 21 | 33 |  |  |  |  |  |  | O=C1CNc2ncc(-c3cnc4[nH]ccc4c3)nc2N1CCC1CCOCC1 [C-61]
36 | 2 | 7 | 4 |  |  |  |  |  |  | COC1CCC(CN2C(=O)CNc3ncc(-c4cnc(-c5nc[nH]n5)cc4C)nc32)CC1 (stereo not shown) [C-91]
37 | < 1.5 | 106 | 168 |  |  |  |  |  |  | COCCN1C(=O)CNc2ncc(-c3cnc4[nH]ccc4c3)nc21 [C-104]
38 | 88 | 960 | 1100 |  |  |  |  |  |  | COC1CCC(N2CC(=O)Nc3ncc(-c4ccc(-c5nnc[nH]5)nc4C)nc32)C1 (stereo not shown) [C-52]
